Experimental data from ChEMBL document CHEMBL5523720, “Identification of novel GSPT1 degraders by virtual screening and bioassay” (Eur J Med Chem, 2024).
The source made the active and inactive calls. The calls are words filed in the database; no cut-off is given here.

Tests used:
K562 = assay: Antiproliferative activity against human K562 cells incubated for 48 hrs by MTS assay; assay type: functional, cell-based; details: K562, 48 h
U-937 = assay: Antiproliferative activity against human U-937 cells incubated for 48 hrs by MTS assay; assay type: functional, cell-based; details: U-937, 48 h
U-266 = assay: Antiproliferative activity against human U-266 cells incubated for 48 hrs by MTS assay; assay type: functional, cell-based; details: U-266, 48 h
OCI-AML2 = assay: Antiproliferative activity against human OCI-AML2 cells incubated for 48 hrs by MTS assay; assay type: functional, cell-based; details: OCI-AML2, 48 h
[1] = biological target: Eukaryotic peptide chain release factor GTP-binding subunit ERF3A (Homo sapiens) (UniProt P15170); assay: Induction of GSPT1 degradation in human U-937 cells at 1 uM incubated for 8 hrs by Western blotting analysis; assay type: cell-based
Chain of Eukaryotic peptide chain release factor GTP-binding subunit ERF3A (Homo sapiens) (P15170 whole entry): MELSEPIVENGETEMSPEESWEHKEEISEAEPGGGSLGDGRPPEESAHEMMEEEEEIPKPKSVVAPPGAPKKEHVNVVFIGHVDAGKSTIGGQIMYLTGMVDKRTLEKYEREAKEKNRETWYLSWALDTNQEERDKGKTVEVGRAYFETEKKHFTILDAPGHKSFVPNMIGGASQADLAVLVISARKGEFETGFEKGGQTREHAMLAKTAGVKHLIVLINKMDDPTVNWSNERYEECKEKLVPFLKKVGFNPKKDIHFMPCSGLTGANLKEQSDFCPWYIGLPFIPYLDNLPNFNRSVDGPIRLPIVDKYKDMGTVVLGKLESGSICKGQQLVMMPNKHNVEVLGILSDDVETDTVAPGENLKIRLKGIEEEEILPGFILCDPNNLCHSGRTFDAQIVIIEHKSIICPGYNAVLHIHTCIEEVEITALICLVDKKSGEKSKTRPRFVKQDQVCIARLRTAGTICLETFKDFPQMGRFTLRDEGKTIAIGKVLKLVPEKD

[2] = biological target: Protein cereblon/Eukaryotic peptide chain release factor GTP-binding subunit ERF3A (Homo sapiens) (UniProt Q96SW2+P15170); assay: Induction of CRBN to GSPT1 protein-protein interaction in human U-937 cells at 1 uM pretreated with MG132 for 1 hr followed by compound addition and measured after 8 hrs by immunoprecipitation assay; assay type: cell-based; details: filed as activator
Chain of Protein cereblon/Eukaryotic peptide chain release factor GTP-binding subunit ERF3A (Homo sapiens) (P15170 whole entry, looked up): as the sequence (P15170 whole entry) above
Chain of Protein cereblon/Eukaryotic peptide chain release factor GTP-binding subunit ERF3A (Homo sapiens) (Q96SW2 whole entry, looked up): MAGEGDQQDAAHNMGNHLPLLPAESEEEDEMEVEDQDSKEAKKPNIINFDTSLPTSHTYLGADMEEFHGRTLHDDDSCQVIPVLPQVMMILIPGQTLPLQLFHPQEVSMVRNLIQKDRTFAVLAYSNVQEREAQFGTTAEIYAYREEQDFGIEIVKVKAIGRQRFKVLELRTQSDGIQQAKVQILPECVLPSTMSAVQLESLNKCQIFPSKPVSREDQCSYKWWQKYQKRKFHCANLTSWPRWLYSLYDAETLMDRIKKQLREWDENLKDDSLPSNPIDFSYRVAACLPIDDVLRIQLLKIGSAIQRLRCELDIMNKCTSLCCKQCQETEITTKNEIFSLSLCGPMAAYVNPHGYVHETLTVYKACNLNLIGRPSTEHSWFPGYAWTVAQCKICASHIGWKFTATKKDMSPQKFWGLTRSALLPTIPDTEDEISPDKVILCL

[3] = biological target: Eukaryotic peptide chain release factor GTP-binding subunit ERF3A (Homo sapiens) (UniProt P15170); assay: Induction of GSPT1 degradation in human OCI-AML2 cells at 1 uM incubated for 8 hrs by Western blotting analysis; assay type: cell-based

Row | IC50 (K562) [µM] | IC50 (U-937) [µM] | IC50 (OCI-AML2) [µM] | Structure (SMILES) | IC50 (U-266) [µM] | Activity [1] | Activity [2] | Activity [3]
1 | > 40 | 6.89 | 2.66 | Cc1nc2c(C)cccc2cc1C(=O)N/N=C/c1ccccc1Cl | 3.93 | – | – | –
2 | > 40 | > 40 | > 40 | CC(C)=NNC(=O)c1cc2cccc(C)c2nc1C | > 40 | – | – | –
3 | 11.1 | 20 | 10.4 | Cc1nc2c(C)cccc2cc1C(=O)N/N=C/c1c(C)[nH]c2ccccc12 | 17.4 | – | – | –
4 | > 40 | > 40 | > 40 | Cc1nc2ccccc2cc1C(=O)N/N=C/c1ccccn1 | > 40 | – | – | –

The remaining lines, values behind:

Row | Structure (SMILES) | IC50 (K562) [µM] | IC50 (U-937) [µM] | IC50 (OCI-AML2) [µM] | IC50 (U-266) [µM] | Activity [1] | Activity [2] | Activity [3]
5 | Cc1nc2c(C)cccc2cc1C(=O)N/N=C/c1cccc(Cl)c1 | 9.92 | 4.31 | 2.49 | 3.1 | – | – | –
6 | Cc1ccc2nc(C)c(C(=O)N/N=C/c3cccc(O)c3)cc2c1 | > 40 | > 40 | > 40 | > 40 | – | – | –
7 | O=C1CCC(N2Cc3cc(CNC(=O)C(F)(F)c4ccc(Cl)cc4)ccc3C2=O)C(=O)N1 (stereo not drawn) | > 40 | < 0.032 | 0.01 | 0.04 | Active | Active | Active
8 | Cc1nc2ccccc2cc1C(=O)N/N=C/c1ccccc1O | > 40 | 6.53 | 8.98 | 6.75 | – | – | –
9 | Cc1nc2ccccc2cc1C(=O)N/N=C/c1cccc([N+](=O)[O-])c1 | > 40 | > 40 | > 40 | > 40 | – | – | –
10 | Cc1nc2c(C)cccc2cc1C(=O)N/N=C/c1cccnc1 | > 40 | > 40 | 15.6 | 26.6 | – | – | –
